Assay results: patent US20100061928A1, “LABELLED ANALOGUES OF HALOBENZAMIDES AS RADIOPHARMACEUTICALS” (Institut National De La Sante et De La Recherche Medicale …, priority 2006, published 2010)
Counter-ions that a name gives are not always drawn. Each block holds one compound with its values, some of them ahead of it.

Tests used:
[1] = Elimination of the molecules: cumulative urinary and faecal excretion 0-72 hours; format: in vivo, mouse; details: for Faecal elimination 0-72 hours (Faeces) / Urinary and faecal elimination 0-72 hours (Total) / Urinary elimination 0-72 hours (Urine): cumulative excretion 0-72 hours; for Faecal elimination 0-72 hours (Faeces) / Urinary elimination 0-72 hours (Urine): mice in metabolic cages; for Urinary and faecal elimination 0-72 hours (Total): urine + faeces
tumour = experiment: Dosimetry with regard to the tumour (MIRD programme, extrapolated to ^131I); details: for Effective period: extrapolated to 131I labelling; for Biological period: from biodistribution data
[2] = test system: grafted B16 F0 murine melanoma tumour; experiment: Biodistribution of the ^125I-labelled molecules in the melanoma-bearing mouse (autoradiography of whole-body sections); details: for Concentration of radioactivity, B 16 (tumour), Mean / Concentration of radioactivity, Ic (intestinal contents), Mean / Concentration of radioactivity, Sc (stomach contents), Mean / Concentration of radioactivity, blood (measured in the heart cavity), Mean / Concentration of radioactivity, brain, Mean / Concentration of radioactivity, kidney, Mean / Concentration of radioactivity, liver, Mean / Concentration of radioactivity, lungs, Mean / Concentration of radioactivity, muscle (skeletal muscle), Mean / Concentration of radioactivity, pancreas, Mean / Concentration of radioactivity, spleen, Mean / Concentration of radioactivity, uvea (pigmented tissues of the eye), Mean: ^125I-labelled compound; for Biodistribution, Mean, B 16 / Biodistribution, radioactivity concentration in B 16, Mean: B 16 tumour
Description: The distribution of the radioactivity of the various compounds in the body (tumour and other organs) is quantified using an Ambis 4000 image analyzer on sections of whole animals. […] All the in vivo experimentation is carried out within the context defined by French legislation relating to animal experimentation.
The B16 F0 melanoma cells are provided by the ATCC and cultured in monolayers in culture medium (MEM, Invitrogen) supplemented with 10% foetal calf serum and antibiotics. The cultures are maintained by subculturing after trypsinization. The cells of the first passages are frozen and stored in liquid nitrogen. For the transplanting, the cells in culture at confluence are detached by trypsinization and washed with phosphate buffer (PBS).
The distribution of the radioactivity present in the sections is analyzed using an AMBIS 4000 analyzer (Scanalytics, CSPI, San Diego, Calif.), which is a proportional counter with a multiwire chamber validated and calibrated beforehand for the monitoring of iodine in the mouse. The measurements require acquisition times of 1000 minutes. […] The value of radioactivity per unit of surface area (cpm/mm^2) is converted to concentration (kBq/g) and expressed as percentage of the injected dose/g of tissue (% ID/g).

[3] = 1 H after i.v., 125I-labelled, dose = 1.09 MBq
[4] = 3 H after i.v., 125I-labelled, dose = 1.09 MBq
[5] = 24 H after i.v., 125I-labelled, dose = 1.09 MBq
[6] = 72 H after i.v., 125I-labelled, dose = 1.09 MBq

- Faecal elimination 0-72 hours (Faeces) [1]: 4.8%
- Urinary and faecal elimination 0-72 hours (Total) [1]: 87.9%
- Urinary elimination 0-72 hours (Urine) [1]: 83.1%
- elimination route (in words) ([1]; urinary versus faecal, 0-72 hours): predominantly in the urine
- Effective period (tumour): 17.8 h
- Biological period (tumour): 19.6 hours
Compound: CCN(CC)CCNC(=O)c1ccc(I)cc1 [BZA, N-(2-diethylaminoethyl)-4-iodobenzamide, reference compound]

- Concentration of radioactivity, B 16 (tumour), Mean ([2]; 1 H after i.v. administration): 12.99 % ID/g
- Concentration of radioactivity, Ic (intestinal contents), Mean ([2]; 1 H after i.v. administration): 7.82 % ID/g
- Concentration of radioactivity, Sc (stomach contents), Mean ([2]; 1 H after i.v. administration): 27.82 % ID/g
- Concentration of radioactivity, blood (measured in the heart cavity), Mean ([2]; 1 H after i.v. administration): 2.97 % ID/g
- Concentration of radioactivity, brain, Mean ([2]; 1 H after i.v. administration): 4.37 % ID/g
- Concentration of radioactivity, kidney, Mean ([2]; 1 H after i.v. administration): 13.30 % ID/g
- Concentration of radioactivity, liver, Mean ([2]; 1 H after i.v. administration): 9.46 % ID/g
- Concentration of radioactivity, lungs, Mean ([2]; 1 H after i.v. administration): 11.82 % ID/g
- Concentration of radioactivity, muscle (skeletal muscle), Mean ([2]; 1 H after i.v. administration): 1.92 % ID/g
- Concentration of radioactivity, pancreas, Mean ([2]; 1 H after i.v. administration): 10.18 % ID/g
- Concentration of radioactivity, spleen, Mean ([2]; 1 H after i.v. administration): 9.70 % ID/g
- Concentration of radioactivity, uvea (pigmented tissues of the eye), Mean ([2]; 1 H after i.v. administration): 13.21 % ID/g
- Concentration of radioactivity, B 16 (tumour), Mean ([2]; 3 H after i.v. administration): 11.38 % ID/g
- Concentration of radioactivity, Ic (intestinal contents), Mean ([2]; 3 H after i.v. administration): 25.85 % ID/g
- Concentration of radioactivity, Sc (stomach contents), Mean ([2]; 3 H after i.v. administration): 24.69 % ID/g
- Concentration of radioactivity, blood (measured in the heart cavity), Mean ([2]; 3 H after i.v. administration): 1.77 % ID/g
- Concentration of radioactivity, brain, Mean ([2]; 3 H after i.v. administration): 0.78 % ID/g
- Concentration of radioactivity, kidney, Mean ([2]; 3 H after i.v. administration): 5.65 % ID/g
- Concentration of radioactivity, liver, Mean ([2]; 3 H after i.v. administration): 4.75 % ID/g
- Concentration of radioactivity, lungs, Mean ([2]; 3 H after i.v. administration): 4.43 % ID/g
- Concentration of radioactivity, muscle (skeletal muscle), Mean ([2]; 3 H after i.v. administration): 0.83 % ID/g
- Concentration of radioactivity, pancreas, Mean ([2]; 3 H after i.v. administration): 8.19 % ID/g
- Concentration of radioactivity, spleen, Mean ([2]; 3 H after i.v. administration): 2.59 % ID/g
- Concentration of radioactivity, uvea (pigmented tissues of the eye), Mean ([2]; 3 H after i.v. administration): 13.90 % ID/g
- Concentration of radioactivity, B 16 (tumour), Mean ([2]; 6 H after i.v. administration): 8.95 % ID/g
- Concentration of radioactivity, Ic (intestinal contents), Mean ([2]; 6 H after i.v. administration): 18.72 % ID/g
- Concentration of radioactivity, Sc (stomach contents), Mean ([2]; 6 H after i.v. administration): 10.79 % ID/g
- Concentration of radioactivity, blood (measured in the heart cavity), Mean ([2]; 6 H after i.v. administration): 1.74 % ID/g
- Concentration of radioactivity, brain, Mean ([2]; 6 H after i.v. administration): 0.25 % ID/g
- Concentration of radioactivity, kidney, Mean ([2]; 6 H after i.v. administration): 3.07 % ID/g
- Concentration of radioactivity, liver, Mean ([2]; 6 H after i.v. administration): 2.73 % ID/g
- Concentration of radioactivity, lungs, Mean ([2]; 6 H after i.v. administration): 2.12 % ID/g
- Concentration of radioactivity, muscle (skeletal muscle), Mean ([2]; 6 H after i.v. administration): 0.38 % ID/g
- Concentration of radioactivity, spleen, Mean ([2]; 6 H after i.v. administration): 8.05 % ID/g
- Concentration of radioactivity, uvea (pigmented tissues of the eye), Mean ([2]; 6 H after i.v. administration): 12.76 % ID/g
- Concentration of radioactivity, B 16 (tumour), Mean ([2]; 24 H after i.v. administration): 6.97 % ID/g
- Concentration of radioactivity, Ic (intestinal contents), Mean ([2]; 24 H after i.v. administration): 3.03 % ID/g
- Concentration of radioactivity, Sc (stomach contents), Mean ([2]; 24 H after i.v. administration): 3.10 % ID/g
- Concentration of radioactivity, uvea (pigmented tissues of the eye), Mean ([2]; 24 H after i.v. administration): 12.28 % ID/g
- Concentration of radioactivity, B 16 (tumour), Mean ([2]; 72 H after i.v. administration): 1.52 % ID/g
- Concentration of radioactivity, uvea (pigmented tissues of the eye), Mean ([2]; 72 H after i.v. administration): 7.84 % ID/g
- Faecal elimination 0-72 hours (Faeces) [1]: 26.7%
- Urinary and faecal elimination 0-72 hours (Total) [1]: 70.6%
- Urinary elimination 0-72 hours (Urine) [1]: 43.7%
- Effective period (tumour): 21.4 h
- Biological period (tumour): 24.0 hours
Compound: CCN(CC)CCNC(=O)c1ccc2cc(I)ccc2c1 [compound 3, N-(2-diethylaminoethyl)-6-iodo-2-naphthamide hydrochloride]

- Biodistribution, Mean, B 16 ([2]; 1 H): 4.78
- Biodistribution, Mean, B 16 ([2]; 3 H): 3.98
- Biodistribution, Mean, B 16 ([2]; 6 H): 4.57
- Biodistribution, Mean, B 16 ([2]; 24 H): 2.77
- Biodistribution, Mean, B 16 ([2]; 72 H): 1.67
- Biodistribution, Mean, GB ([2]; 1 H): 43.71
- Biodistribution, Mean, GB ([2]; 6 H): 12.79
- Biodistribution, Mean, Ic ([2]; 1 H): 23.92
- Biodistribution, Mean, Ic ([2]; 3 H): 30.20
- Biodistribution, Mean, Ic ([2]; 6 H): 28.54
- Biodistribution, Mean, Ic ([2]; 24 H): 1.83
- Biodistribution, Mean, Ic ([2]; 72 H): 0.75
- Biodistribution, Mean, Sc ([2]; 1 H): 10.16
- Biodistribution, Mean, Sc ([2]; 3 H): 9.56
- Biodistribution, Mean, Sc ([2]; 6 H): 6.06
- Biodistribution, Mean, Sc ([2]; 24 H): 0.73
- Biodistribution, Mean, blood ([2]; 1 H): 0.75
- Biodistribution, Mean, blood ([2]; 3 H): 0.54
- Biodistribution, Mean, blood ([2]; 6 H): 0.42
- Biodistribution, Mean, brain ([2]; 1 H): 0.28
- Biodistribution, Mean, brain ([2]; 3 H): 0.27
- Biodistribution, Mean, brain ([2]; 6 H): 0.11
- Biodistribution, Mean, kidney ([2]; 1 H): 3.07
- Biodistribution, Mean, kidney ([2]; 3 H): 1.27
- Biodistribution, Mean, kidney ([2]; 6 H): 0.77
- Biodistribution, Mean, liver ([2]; 1 H): 5.38
- Biodistribution, Mean, liver ([2]; 3 H): 3.62
- Biodistribution, Mean, liver ([2]; 6 H): 2.16
- Biodistribution, Mean, liver ([2]; 24 H): 0.48
- Biodistribution, Mean, liver ([2]; 72 H): 0.42
- Biodistribution, Mean, lungs ([2]; 1 H): 1.70
- Biodistribution, Mean, lungs ([2]; 3 H): 0.88
- Biodistribution, Mean, lungs ([2]; 6 H): 0.59
- Biodistribution, Mean, muscle ([2]; muscle, 1 H): 0.30
- Biodistribution, Mean, pancreas ([2]; 1 H): 1.38
- Biodistribution, Mean, pancreas ([2]; 3 H): 0.70
- Biodistribution, Mean, spleen ([2]; 1 H): 3.11
- Biodistribution, Mean, spleen ([2]; 3 H): 1.29
- Biodistribution, Mean, spleen ([2]; 6 H): 0.87
- Biodistribution, Mean, thyroid ([2]; 1 H): 21.00
- Biodistribution, Mean, thyroid ([2]; 24 H): 40.73
- Biodistribution, Mean, thyroid ([2]; 72 H): 38.07
- Biodistribution, Mean, uvea ([2]; 1 H): 3.83
- Biodistribution, Mean, uvea ([2]; 3 H): 4.69
- Biodistribution, Mean, uvea ([2]; 6 H): 3.51
- Biodistribution, Mean, uvea ([2]; 24 H): 3.45
- Biodistribution, Mean, uvea ([2]; 72 H): 1.96
- Faecal elimination 0-72 hours (Faeces) [1]: 23.2%
- Urinary and faecal elimination 0-72 hours (Total) [1]: 31.7%
- Urinary elimination 0-72 hours (Urine) [1]: 8.5%
Compound: CCN(CC)CCNC(=O)c1cccc2cc3cc(I)ccc3nc12 [compound 111, N-(2-diethylaminoethyl)-7-iodoacridine-4-carboxamide dihydrochloride]

- Biodistribution, radioactivity concentration in B 16, Mean [2, 3]: 14.69 % ID/g
- Biodistribution, radioactivity concentration in B 16, Mean [2, 4]: 44.92 % ID/g
- Biodistribution, radioactivity concentration in B 16, Mean [2, 5]: 37.46 % ID/g
- Biodistribution, radioactivity concentration in B 16, Mean [2, 6]: 24.02 % ID/g
- Biodistribution, radioactivity concentration in Ic, Mean [2, 3]: 27.28 % ID/g
- Biodistribution, radioactivity concentration in Ic, Mean [2, 4]: 29.12 % ID/g
- Biodistribution, radioactivity concentration in Sc, Mean [2, 3]: 24.11 % ID/g
- Biodistribution, radioactivity concentration in Sc, Mean [2, 4]: 34.86 % ID/g
- tumour concentration, times higher than with BZA ([2]; at 72 hours (FIG. 1B)): 31 times
- Biodistribution, radioactivity concentration in blood, Mean [2, 3]: 1.85 % ID/g
- Biodistribution, radioactivity concentration in blood, Mean [2, 4]: 1.61 % ID/g
- Biodistribution, radioactivity concentration in brain, Mean [2, 3]: 0.75 % ID/g
- Biodistribution, radioactivity concentration in brain, Mean [2, 4]: 0.46 % ID/g
- tumour concentration, % of the injected dose per gram of tumour ([2]; from the first hour): 14.7 % ID/g
- Biodistribution, radioactivity concentration in kidney, Mean [2, 3]: 24.42 % ID/g
- Biodistribution, radioactivity concentration in kidney, Mean [2, 4]: 17.73 % ID/g
- Biodistribution, radioactivity concentration in liver, Mean [2, 3]: 12.84 % ID/g
- Biodistribution, radioactivity concentration in liver, Mean [2, 4]: 7.84 % ID/g
- Biodistribution, radioactivity concentration in lungs, Mean [2, 3]: 5.81 % ID/g
- Biodistribution, radioactivity concentration in lungs, Mean [2, 4]: 4.91 % ID/g
- Biodistribution, radioactivity concentration in muscle, Mean ([2]; muscle, 3 H after i.v., 125I-labelled, dose = 1.09 MBq): 0.79 % ID/g
- Biodistribution, radioactivity concentration in pancreas, Mean [2, 3]: 23.88 % ID/g
- Biodistribution, radioactivity concentration in pancreas, Mean [2, 4]: 13.06 % ID/g
- Biodistribution, radioactivity concentration in spleen, Mean [2, 3]: 18.70 % ID/g
- Biodistribution, radioactivity concentration in spleen, Mean [2, 4]: 6.08 % ID/g
- Biodistribution, radioactivity concentration in thyroid, Mean [2, 4]: 60.78 % ID/g
- Biodistribution, radioactivity concentration in thyroid, Mean [2, 5]: 44.74 % ID/g
- Biodistribution, radioactivity concentration in uvea, Mean [2, 3]: 28.75 % ID/g
- Biodistribution, radioactivity concentration in uvea, Mean [2, 4]: 41.75 % ID/g
- Biodistribution, radioactivity concentration in uvea, Mean [2, 5]: 32.62 % ID/g
- Biodistribution, radioactivity concentration in uvea, Mean [2, 6]: 23.28 % ID/g
- Faecal elimination 0-72 hours (Faeces) [1]: 34.8%
- Urinary and faecal elimination 0-72 hours (Total) [1]: 80.5%
- Urinary elimination 0-72 hours (Urine) [1]: 45.7%
Compound: CCCN(CCC)CCCCNC(=O)c1cnc2cc(I)ccc2n1 [compound 144, N-(4-dipropylaminobutyl)-6-iodoquinoxaline-2-carboxamide dihydrochloride]
